The source of these data is ChEMBL document CHEMBL4340524, “Design and synthesis of a novel 1H-pyrrolo[3,2-b]pyridine-3-carboxamide derivative as an orally available ACC1 inhibitor” (Bioorg Med Chem, 2019).

≈ marks a conversion by molar mass, not a printed value. Calls of active or inactive are those of the source. No cut-off for these calls is given here.

Data set [1] deals with T1, Acetyl-CoA carboxylase 2 (Homo sapiens, UniProt O00763). Kind of data set: Inhibition of recombinant human ACC2 expressed in Sf9 cells at 10 uM using acetyl Co-A as substrate preincubated for 60 mins followed by substrate addition and measured after 30 mins by RapidFire-Mass spectrometry relative to control.
Target sequence in this assay (O00763 whole entry, looked up): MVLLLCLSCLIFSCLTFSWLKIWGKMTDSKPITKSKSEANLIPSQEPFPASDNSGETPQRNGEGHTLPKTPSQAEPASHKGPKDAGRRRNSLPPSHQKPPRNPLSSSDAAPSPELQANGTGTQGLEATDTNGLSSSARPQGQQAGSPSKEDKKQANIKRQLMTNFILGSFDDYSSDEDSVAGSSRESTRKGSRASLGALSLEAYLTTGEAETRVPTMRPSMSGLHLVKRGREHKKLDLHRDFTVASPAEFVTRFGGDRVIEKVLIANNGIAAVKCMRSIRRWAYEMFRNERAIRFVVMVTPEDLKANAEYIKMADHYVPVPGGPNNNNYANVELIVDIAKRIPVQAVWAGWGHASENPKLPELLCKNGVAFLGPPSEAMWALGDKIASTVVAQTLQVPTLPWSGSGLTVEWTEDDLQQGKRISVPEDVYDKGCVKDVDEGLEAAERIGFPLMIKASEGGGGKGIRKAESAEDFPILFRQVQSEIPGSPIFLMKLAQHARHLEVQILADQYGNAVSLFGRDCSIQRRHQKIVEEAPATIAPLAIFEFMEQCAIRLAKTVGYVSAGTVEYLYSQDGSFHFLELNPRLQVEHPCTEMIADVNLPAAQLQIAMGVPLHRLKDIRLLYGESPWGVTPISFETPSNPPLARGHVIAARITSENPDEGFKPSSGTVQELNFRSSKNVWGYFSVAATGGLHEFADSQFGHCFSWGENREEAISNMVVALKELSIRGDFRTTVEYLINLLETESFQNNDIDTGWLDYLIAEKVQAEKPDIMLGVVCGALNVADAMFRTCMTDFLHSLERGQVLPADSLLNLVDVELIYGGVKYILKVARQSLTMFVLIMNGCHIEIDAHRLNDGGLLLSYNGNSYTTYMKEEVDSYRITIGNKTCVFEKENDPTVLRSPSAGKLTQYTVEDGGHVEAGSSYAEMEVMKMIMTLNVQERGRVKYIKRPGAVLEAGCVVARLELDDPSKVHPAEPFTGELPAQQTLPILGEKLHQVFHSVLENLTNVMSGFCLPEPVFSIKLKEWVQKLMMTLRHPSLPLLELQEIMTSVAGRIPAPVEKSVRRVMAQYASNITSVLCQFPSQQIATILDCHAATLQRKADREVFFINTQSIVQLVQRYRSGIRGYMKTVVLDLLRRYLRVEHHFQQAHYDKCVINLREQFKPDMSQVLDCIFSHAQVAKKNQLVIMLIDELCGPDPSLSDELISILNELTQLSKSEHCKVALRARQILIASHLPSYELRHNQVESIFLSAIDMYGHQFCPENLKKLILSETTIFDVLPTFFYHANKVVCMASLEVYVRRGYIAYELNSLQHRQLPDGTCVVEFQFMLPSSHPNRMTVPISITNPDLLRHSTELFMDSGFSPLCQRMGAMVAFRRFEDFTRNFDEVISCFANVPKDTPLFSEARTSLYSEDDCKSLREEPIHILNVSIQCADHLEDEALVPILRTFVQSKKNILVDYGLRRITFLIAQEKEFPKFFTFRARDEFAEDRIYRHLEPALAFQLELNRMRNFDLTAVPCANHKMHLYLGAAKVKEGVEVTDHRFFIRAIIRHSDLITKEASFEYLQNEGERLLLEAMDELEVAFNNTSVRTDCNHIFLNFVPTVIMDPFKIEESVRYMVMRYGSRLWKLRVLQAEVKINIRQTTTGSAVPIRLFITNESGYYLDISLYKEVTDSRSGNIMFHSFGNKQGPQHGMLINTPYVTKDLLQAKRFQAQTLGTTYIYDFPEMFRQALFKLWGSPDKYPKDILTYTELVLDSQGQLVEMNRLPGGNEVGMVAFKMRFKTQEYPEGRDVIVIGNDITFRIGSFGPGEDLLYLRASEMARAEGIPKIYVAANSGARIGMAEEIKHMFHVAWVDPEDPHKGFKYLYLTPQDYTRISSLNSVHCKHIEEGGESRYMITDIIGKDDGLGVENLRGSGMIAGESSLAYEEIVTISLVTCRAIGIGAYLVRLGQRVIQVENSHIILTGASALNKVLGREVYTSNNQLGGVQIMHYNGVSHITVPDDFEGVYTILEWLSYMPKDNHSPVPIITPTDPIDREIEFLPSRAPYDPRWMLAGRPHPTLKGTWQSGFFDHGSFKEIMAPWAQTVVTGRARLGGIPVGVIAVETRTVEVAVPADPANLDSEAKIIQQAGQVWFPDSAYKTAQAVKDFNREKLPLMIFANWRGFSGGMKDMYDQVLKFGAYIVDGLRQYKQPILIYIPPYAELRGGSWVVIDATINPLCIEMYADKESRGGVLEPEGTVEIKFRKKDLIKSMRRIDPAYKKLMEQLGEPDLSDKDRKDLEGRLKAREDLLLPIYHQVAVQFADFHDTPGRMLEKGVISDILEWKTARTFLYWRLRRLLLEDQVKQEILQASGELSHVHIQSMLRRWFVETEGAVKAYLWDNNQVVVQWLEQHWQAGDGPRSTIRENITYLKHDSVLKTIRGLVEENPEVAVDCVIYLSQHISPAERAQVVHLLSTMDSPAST
Data set [2] has as its target T2, Acetyl-CoA carboxylase 1 (Homo sapiens, UniProt Q13085). The experiment in a line: Inhibition of recombinant human ACC1 expressed in Sf9 cells at 10 uM using acetyl Co-A as substrate preincubated for 60 mins followed by substrate addition and measured after 30 mins by RapidFire-Mass spectrometry relative to control.
Data set [3] can be described thus: AUC (0 to 8 hrs) in ICR mouse at 0.1 mg/kg, iv or 1 mg/kg, po administered as cassette dose by LC-MS/MS analysis. Format: ADME, organism-based. The following applies: in vivo.
A short description of data set [4]: Solubility of the compound in pH 6.8 aqueous buffer by HPLC analysis. The format is physicochemical.
The target of data set [5] is T2, Acetyl-CoA carboxylase 1. Kind of data set: Inhibition of ACC1 in human HCT116 cells assessed as reduction in [14C]acetate uptake preincubated for 60 mins followed by [14C]acetate addition and measured after 2 hrs by top count scintillation counting method. The format is cell-based.
Data set [6] has as its target T1, Acetyl-CoA carboxylase 2. The experiment in a line: Inhibition of recombinant human ACC2 expressed in Sf9 cells using acetyl Co-A as substrate preincubated for 60 mins followed by substrate addition and measured after 30 mins by RapidFire-Mass spectrometry.
Target sequence in this assay (O00763 whole entry): as the sequence (O00763 whole entry, looked up) above
The target of data set [7] is T2, Acetyl-CoA carboxylase 1. The experiment in a line: Inhibition of recombinant human ACC1 expressed in Sf9 cells using acetyl Co-A as substrate preincubated for 60 mins followed by substrate addition and measured after 30 mins by RapidFire-Mass spectrometry.
The nature of data set [8]: Oral bioavailability in ICR mouse at 1 mg/kg administered as cassette dose by LC-MS/MS analysis. To be noted: in vivo. Format: ADME, organism-based.
For data set [9], the system named is Mus musculus. Kind of data set: In vivo inhibition of ACC1 in BALB/cA Jc1-nu/nu mouse xenografted with human HCT116 cells assessed as suppression of malonyl-CoA synthesis at 100 mg/kg, po administered as single dose measured after 16 hrs by RPLC-MS/MS analysis. Format: functional, organism-based. A general note: A xenograft is tissue or cells of one species grown in another, often human tumour cells in immunodeficient mice.

The species entered for data set [10] is Homo sapiens. The experiment in a line: Selectivity ratio of IC50 for recombinant human ACC2 expressed in Sf9 cells to IC50 for recombinant human ACC1 expressed in Sf9 cells.

Regarding `O=C(Nc1ccc2[nH]ncc2c1)c1c[nH]c2cc(-c3ccccc3)ccc12`, the inhibition in data set [1] is -8%; in data set [2] it was -7%.
For `CCn1cc(C(=O)Nc2ccc3[nH]ncc3c2)c2ncc(-c3ccccc3)cc21`, in [3], the area under the curve AUC(0-t) amounted to 653 ng·h/mL. Further, in data set [4], the solubility was less than 60 µg/mL. The values for the IC50 in data set [5], in data set [6] and in data set [7] were 130 nM, 3700 nM and 1000 nM, respectively. In addition, the bioavailability in data set [8] amounted to 57.7%.
For the molecule `Cn1cc(C(=O)Nc2ccc3[nH]cnc3c2)c2ncc(-c3ccccc3)cc21`, the values for the inhibition in data set [1] and in data set [2] were 31% and 51%, respectively.
As for `Cn1cc(C(=O)Nc2ccc3[nH]ccc3c2)c2ncc(-c3ccccc3)cc21`, the inhibition in [2] came out at 69%.
In data set [3], `CC(C)n1cc(C(=O)Nc2ccc3[nH]ncc3c2)c2ncc(-c3ccccc3)cc21` yielded an AUC(0-t) of 1700 ng·h/mL. In data set [4], this molecule yielded a solubility of 3200 µg/mL (≈ 8090 µM). Further, the IC50 in data set [5] is greater than 1000 nM; in data set [6] it was 6400 nM; in [7], 1600 nM. The bioavailability in data set [8] amounted to 59.8%.
Regarding `CC(C)n1cc(C(=O)Nc2cc3cn[nH]c3cc2F)c2ncc(-c3ccc(N)cc3)cc21`, the inhibition result in [9] is “Active”. The molecule also yielded an AUC(0-t) in data set [3] of 647 ng·h/mL. For the same molecule, the IC50 in data set [5] stood at 150 nM; in [6] it was 2000 nM; in data set [7], 170 nM. The molecule also yielded a bioavailability in [8] of 63.2%.
As for `CC(C)n1cc(C(=O)Nc2ccc3[nH]ncc3c2)c2ncc(-c3ccc(N)cc3)cc21`, the IC50 in data set [5] came to 490 nM; in data set [6], 2200 nM; in data set [7] it was 210 nM.
As to `O=C(Nc1ccc2[nH]ncc2c1)c1c[nH]c2cc(-c3ccccc3)cnc12`, the inhibition in data set [1] amounted to 4%; in data set [2], 45%.
On the same counts, the results for `CN(C(=O)c1cn(C)c2cc(-c3ccccc3)cnc12)c1ccc2[nH]ncc2c1` are 6% and 7%.
For the molecule `Cn1cc(C(=O)Nc2ccc3[nH]ncc3c2)c2ncc(-c3ccccc3)cc21`, the AUC(0-t) in data set [3] amounted to 189 ng·h/mL. In addition, in data set [4], the solubility was 60 µg/mL (≈ 163 µM). Also, the Ratio IC50 in data set [10] is 5. Also, the IC50 was 430 nM in [5], 4000 nM in data set [6] and 820 nM in [7]. In addition, the results for the inhibition in [1] and in data set [2] were 83% and 99%, respectively. This molecule also came in with a bioavailability in [8] of 39.3%.
Turning to `Cn1cc(C(=O)Nc2ccc3c(cnn3C)c2)c2ncc(-c3ccccc3)cc21`, the inhibition in [2] was found to be 26%.

As a reminder, the inhibition is the drop in the measured response relative to a control, in per cent. By AUC(0-t) is commonly meant exposure summed from dosing to a finite time, without extrapolation to infinity. For orientation: solubility means how much of the substance goes into solution per volume. A high value points to much dissolved substance. Usually IC50 stands for the concentration that inhibits the measured activity by half. For orientation: bioavailability means dose-corrected exposure relative to a reference, in per cent. Higher therefore signals much systemic uptake.
